The record followed here is patent US20230028880A1, “CD38-BINDING AGENTS AND USES THEREOF” (Biohaven Therapeutics Ltd., priority 2019, published 2023).

Assay type in all cases: cell-based
Experiment [1] concerns SUDHL-4 cells. Kind of experiment: CIML NK cell SUDHL-4 cell ADCC assay. As for the experimental part:
CIML NK cell SUDHL-4 cell ADCC assay: SUDHL-4 cells were labelled with CFSE and re-suspended in XVIVO15 media containing 20% Human serum. Cells were aliquoted at 10,000 cells/well, 18 ul/well of 96 well V-bottom plates. NK cells (in PBS 5% HSA) were added at a 9:1 ratio (90,000 NK cell per well) in an equal volume (18 ul per well). Co-cultures were incubated overnight at 37° C. in a 5% CO2 atmosphere. Next day, cells were washed, and stained with the following reagents: Near Infra-Red Fixable viability dye (Thermo Fisher), CD3 FITC (Biolegend) and CD56 PE (Biolegend). Percentages of Dead SUDHL-4 cells were calculated by gating on CFSE+ cells that are also positive for Near Infrared Live Dead dye.
Baseline activity was assessed by using NK cells that have not been stimulated with cytokine cocktail (non-CIML NK cells). FIG. 6 represents frequencies of dead SUDHL-4 cells in NK-SUDHL-4 cell co-cultures after 18 hours of incubation.

The subject of experiment [2] is Daudi cells. The experiment is described as follows: KILR ADCC killing assay: KILR-transfected Daudi cells with purified NK cells (% dead cells). Conditions: for % dead cells, KILR ADCC killing assay: KILR Daudi cells with purified NK cells, duplicate columns. The text has this:
In some embodiments, CD38-ABT ARMs bind to target cells and antibodies, e.g., human antibodies. In some embodiments, such ternary structures present antibodies to effector cells such as NK cell and bind to, e.g., CD16a receptors. […] Daudi cells were transfected with KILR reporter construct (DiscoverX #97-0002). An attenuated lentivirus was designed to deliver a Moloney Murine Leukemia Virus (MMLV) engineered to drive expression of a housekeeping gene tagged with Enhanced ProLabel (ePL) a beta-Galactosidase (beta-gal) reporter fragment. This construct was designed to remain inside cells. Death leads to the release of the KILR reporter protein into the medium. Detection reagent (DiscoverX #97-0001L) contained the complementing beta-gal reporter fragment enzyme acceptor (EA). The two components combined to generate a chemiluminescent signal.

Experiment [3] has as its system Effector cells (ADCC reporter cells) with Daudi cells. The experiment is described as follows: ADCC reporter assay: Daudi cells, IVIG and ADCC reporter effector cells (luciferase, RLU). Conditions: IVIG; for Luminescence, ADCC reporter assay: duplicate columns. In short, it runs like this: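 Daudi targets (5,000/well) were combined with compound (8 concentrations, ½-log steps), human IVIG added at 40 ug/mL, and 37,500 ADCC reporter effector cells per well. After 18 h at 37° C and equilibration to 25° C, luciferase luminescence was read.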
For orientation: In a reporter assay the amount or activity of a reporter protein is the signal.

“And” between values parts separate entries of the source, which are not always exact repeats. Equal entries are not always repeated.

By EC50 is commonly meant the concentration needed to bring the measured effect to its halfway point. As for `CCCCC[C@@H]1NC(=O)[C@H](CCCNC(=N)N)NC(=O)[C@H](C)NC(=O)CSC[C@@H](C(=O)NCCOCCOCCOCCOCCOCCOCCn2nnc3c2CCC2C(CC3)C2COC(=O)N2CCC(C(=O)NCC(=O)N[C@H](CCC(=O)N[C@H](CCC(=O)N[C@H](CCC(=O)O)C(=O)N[C@H](CCC(=O)N[C@H](CCC(=O)NCC(=O)NCC(=O)N[C@@H](CC(=O)O)C(=O)N[C@H]3CSSC[C@@H](C(=O)N[C@H](C(=O)O)[C@@H](C)O)NC(=O)[C@H](Cc4c[nH]c5ccccc45)NC(=O)[C@H](C(C)C)NC(=O)[C@H](CC(C)C)NC(=O)[C@H](CCC(=O)O)NC(=O)CNC(=O)[C@H](CC(C)C)NC(=O)[C@H](Cc4c[nH]cn4)NC(=O)[C@H](Cc4c[nH]c5ccccc45)NC(=O)[C@H](C)NC3=O)C(=O)O)C(=O)O)C(=O)O)C(=O)O)CC2)NC(=O)[C@H](CC(=O)O)NC(=O)[C@H](CCCCC)NC(=O)[C@H](Cc2ccc(-c3ccccc3)cc2)NC(=O)[C@H](CC(C)C)NC(=O)[C@H](C(C)C)NC(=O)CNC(=O)[C@H](CC(=O)O)NC(=O)[C@H](Cc2c[nH]cn2)NC(=O)[C@H](Cc2ccc(O)cc2)NC1=O` (stereo partly shown) [I-17], the “increase in killing over background (DMSO-treated control)” value in experiment [1] (CIML NK cells in combination with I-17, SUDHL-4 cells, 18 hours) stood at 66%. Besides, in experiment [1] (FIG. 6), the “killing of SUDHL-4 cells in NK-SUDHL-4 co-cultures” value is reported as “can effectively kill cancer cells”. In addition, the 50% effective concentration (EC50) was found to be 5.9 nM in experiment [2] (KILR Daudi cells, purified NK cells, one set of experiments (FIG. 3)) and 5.9 nM in experiment [3] (ADCC reporter assay). Besides, the “% dead cells, KILR ADCC killing assay” value is 5.8% and 5.1% in experiment [2] (compound 0.3 nM); 5.6% in experiment [2] (compound 1 nM); 6.4% and 7.1% in experiment [2] (compound 3 nM); 7% and 7.7% in experiment [2] (compound 10 nM); 8.9% and 10.1% in experiment [2] (compound 100 nM); 8.5% and 9.6% in experiment [2] (compound 300 nM). In experiment [3] (ADCC reporter cells, 18 h, one set of experiment (FIG. 2)), the EC70 result is on record as “about 2.7 nM”. Moreover, the “Luminescence, ADCC reporter assay” value in experiment [3] (compound 0.3 nM, 18 h) is 26632 RLU and 25947 RLU; in experiment [3] (compound 1 nM, 18 h) it was 32303 RLU and 36226 RLU; in experiment [3] (compound 3 nM, 18 h), 50671 RLU and 54979 RLU; in experiment [3] (compound 10 nM, 18 h) it was 63014 RLU and 62702 RLU; in experiment [3] (compound 30 nM, 18 h), 69329 RLU and 70980 RLU; in experiment [3] (compound 100 nM, 18 h) it was 70908 RLU and 75233 RLU. Moreover, the “Luminescence, ADCC reporter assay” value in experiment [3] (compound 300 nM, 18 h) was 69068 RLU and 69848 RLU; in experiment [3] (compound 1000 nM, 18 h), 60578 RLU and 59440 RLU.
